In patent US20230151034A1 (COCRYSTAL PHARMA, INC., priority 2020, published 2023):

molecular target: SARS2 protease (Severe acute respiratory syndrome coronavirus 2, UniProt P0DTD1); assay: SARS-CoV-2 protease inhibition assay (SARS2 FRET protease assay); format: biochemical; conditions: Table E; SARS-CoV-2 protease inhibition; read-out: IC50
Protocol: Viral protease assays: The antiviral activities of inhibitors were determined by FRET (Fluorescence Resonance Energy Transfer) assay. Purified viral protease was incubated with the protease substrate peptide (Edans-DFHLQ/GP-Dabcyl) and inhibitor, and IC50 values were subsequently determined by the fluorescence signals.
The SARS2 FRET protease assay was performed in 20 mM HEPES-Na pH 7, 120 mM NaCl, 0.4 mM EDTA, 0.01% Triton, 5% glycerol, and 4 mM DTT. A self-quenching peptide substrate 5-FAM-TSA VLQ SGF RKK (5TAMRA)-NH2 was custom synthesized by Anaspec. Compounds were diluted in 3-fold serial dilutions to final concentrations of 20 μM to 1.0 nM. SARS2 protease was added to a final concentration of 25 nM, depending on the enzyme activity level, and the peptide substrate was added to a final concentration of 1.3 μM. The assay was incubated 30 minutes at 30° C. and read in a Perkin Elmer Envision with excitation at 473 nm and emission measurement at 519 nm.

First: CON(C)C(=O)[C@@H]1CC(C(=O)N(C)C)C/C=C/CCC(Cc2ccccc2)OC(=O)NC(CC(C)C)C(=O)N1 (stereo in doubt) [Compound B31, (4S,7S)-15-Benzyl-4-isobutyl-N7-methoxy-N7,N9,N9-trimethyl-2,5-dioxo-1-oxa-3,6-diazacyclopentadec-11-ene-7,9-dicarboxamide]
Second: CC(C)CC1NC(=O)OC(Cc2ccccc2)CC/C=C/CC(C(=O)N(C)C)CC(C=O)NC1=O (stereo in doubt) [Compound B38, (4S,7S)-15-Benzyl-7-formyl-4-isobutyl-N,N-dimethyl-2,5-dioxo-1-oxa-3,6-diazacyclopentadec-11-ene-9-carboxamide]
The IC50 of the first is higher: > 200 µM for the first, 137 µM for the second. The second is the more potent here.

Compared with `CC(C)C[C@@H]1NC(=O)OC(Cc2ccccc2)CCCCCC(C(=O)N(C)C)CC(C=O)NC1=O` (stereo in doubt) [Compound B44, (4S,7S)-15-benzyl-7-formyl-4-isobutyl-N,N-dimethyl-2,5-dioxo-1-oxa-3,6-diazacyclopentadecane-9-carboxamide], `CON(C)C(=O)[C@H](CCC(=O)N(C)C)NC(=O)[C@H](CC1CCCCC1)NC(=O)OCc1cccc(Cl)c1` [Compound A3, 3-Chlorobenzyl ((S)-3-cyclohexyl-1-(((S)-5-(dimethylamino)-1-(methoxy (methyl)amino)-1,5-dioxopentan-2-yl)amino)-1-oxopropan-2-yl)carbamate] is higher in IC50: 185 µM for the first, > 200 µM for the second.

First: CCCCCCCCC(=O)N[C@@H](CC(C)C)C(=O)NC1(C)CCC(=O)N(C)C1(O)C(=O)NC(C)C (stereo partly drawn) [Compound A5, 2-hydroxy-N-isopropyl-1,3-dimethyl-3-((S)-4-methyl-2-nonanamidopentanamido)-6-oxopiperidine-2-carboxamide]
Second: CCNC(=O)CN(C)C(=O)CC[C@H](NC(=O)[C@H](CC1CCCCC1)NC(=O)OCc1cccc(Cl)c1)C(O)P(=O)(OCC)OCC (stereo partly drawn) [Compound A17, 3-Chlorobenzyl ((2S)-3-cyclohexyl-1-(((2S)-1-(diethoxyphosphoryl)-5-((2-(ethylamino)-2-oxoethyl) (methyl)amino)-1-hydroxy-5-oxopentan-2-yl)amino)-1-oxopropan-2-yl) carbamate]
The IC50 of the first is higher: > 200 µM for the first, 169 µM for the second.

`CCOCCOCCN(C)C(=O)CC[C@H](NC(=O)[C@H](CC1CCCCC1)NC(=O)OCc1cccc(Cl)c1)C(=O)N(C)OC` [Compound A20, 3-Chlorobenzyl ((13S,16S)-17-cyclohexyl-13-(methoxy(methyl)carbamoyl)-9-methyl-10,15-dioxo-3,6-dioxa-9,14-diazaheptadecan-16-yl)carbamate] and `CCNC(=O)OCCN(C)C(=O)CC[C@H](NC(=O)[C@H](CC1CCCCC1)NC(=O)OCc1cccc(Cl)c1)C(=O)N(C)OC` [Compound A21, 3-Chlorobenzyl ((12S,15S)-16-cyclohexyl-12-(methoxy(methyl)carbamoyl)-8-methyl-4,9,14-trioxo-5-oxa-3,8,13-triazahexadecan-15-yl)carbamate] cannot be ordered by IC50: > 200 µM for the first, > 200 µM for the second.

`CON(C)C(=O)[C@H](CCC(=O)N(C)CCc1cccc(Cl)c1)NC(=O)[C@H](CC1CCCCC1)NC(=O)OCc1cccc(Cl)c1` [Compound A23] and `CCOP(=O)(OCC)C(O)[C@H](CCC(=O)N(C)CCc1cccc(Cl)c1)NC(=O)[C@H](CC1CCCCC1)NC(=O)OCc1cccc(Cl)c1` (stereo partly drawn) [Compound A34, 3-Chlorobenzyl ((2S)-1-(((2S)-5-((3-chlorophenethyl)(methyl)amino)-1-(diethoxyphosphoryl)-1-hydroxy-5-oxopentan-2-yl)amino)-3-cyclohexyl-1-oxopropan-2-yl)carbamate] cannot be ordered by IC50: > 200 µM for the first, > 200 µM for the second.

Compared with `CN(CCc1ccccc1)C(=O)CC[C@@H](CO)NC(=O)[C@H](CC1CCCCC1)NC(=O)OCc1cccc(Cl)c1` [Compound A26, 3-chlorobenzyl ((S)-3-cyclohexyl-1-(((S)-1-hydroxy-5-(methyl(phenethyl)amino)-5-oxopentan-2-yl)amino)-1-oxopropan-2-yl)carbamate], `CCNC(=O)NCCN(C)C(=O)CC[C@@H](CO)NC(=O)[C@H](CC1CCCCC1)NC(=O)OCc1cccc(Cl)c1` [Compound A100, 3-Chlorobenzyl ((12S,15S)-16-cyclohexyl-12-(hydroxymethyl)-8-methyl-4,9,14-trioxo-3,5,8,13-tetraazahexadecan-15-yl)carbamate] is higher in IC50: 14.7 µM for the first, > 200 µM for the second. The first is the more potent here.

Going from `CCNC(=O)OCCN(C)C(=O)CC[C@H](NC(=O)[C@H](CC1CCCCC1)NC(=O)OCc1cccc(Cl)c1)C(O)P(=O)(OCC)OCC` (stereo partly drawn) [Compound A28, 3-Chlorobenzyl ((12S,15S)-16-cyclohexyl-12-((diethoxyphosphoryl)(hydroxy)methyl)-8-methyl-4,9,14-trioxo-5-oxa-3,8,13-triazahexadecan-15-yl)carbamate] to `CCOC(=O)NCCN(C)C(=O)CC[C@H](NC(=O)[C@H](CC1CCCCC1)NC(=O)OCc1cccc(Cl)c1)C(O)P(=O)(OCC)OCC` (stereo partly drawn) [Compound A31, 3-Chlorobenzyl ((12S,15S)-16-cyclohexyl-12-((diethoxyphosphoryl)(hydroxy)methyl)-8-methyl-4,9,14-trioxo-3-oxa-5,8,13-triazahexadecan-15-yl)carbamate], the IC50 falls from > 200 µM to 46 µM. The second is the more potent here.

`CCOP(=O)(OCC)C(O)[C@H](CCC(=O)N(C)CCc1ccccc1Cl)NC(=O)[C@H](CC1CCCCC1)NC(=O)OCc1cccc(Cl)c1` (stereo partly drawn) [Compound A47, 3-Chlorobenzyl ((2S)-1-(((2S)-5-((2-chlorophenethyl)(methyl)amino)-1-(diethoxyphosphoryl)-1-hydroxy-5-oxopentan-2-yl)amino)-3-cyclohexyl-1-oxopropan-2-yl)carbamate] and `CCOP(=O)(OCC)C(O)[C@H](CCC(=O)N(C)CCc1ccncc1)NC(=O)[C@H](CC1CCCCC1)NC(=O)OCc1cccc(Cl)c1` (stereo partly drawn) [Compound A51, 3-Chlorobenzyl ((2S)-3-cyclohexyl-1-(((2S)-1-(diethoxyphosphoryl)-1-hydroxy-5-(methyl (2-(pyridin-4-yl)ethyl)amino)-5-oxopentan-2-yl)amino)-1-oxopropan-2-yl) carbamate] cannot be ordered by IC50: > 200 µM for the first, > 200 µM for the second.

`CCOP(=O)(OCC)C(O)[C@H](CCC(=O)N1CCCCc2ccccc21)NC(=O)[C@H](CC1CCCCC1)NC(=O)OCc1cccc(Cl)c1` (stereo partly drawn) [Compound A55, 3-Chlorobenzyl ((2S)-3-cyclohexyl-1-(((2S)-1-(diethoxyphosphoryl)-1-hydroxy-5-oxo-5-(2,3,4,5-tetrahydro-1H-benzo[b]azepin-1-yl)pentan-2-yl)amino)-1-oxopropan-2-yl)carbamate] and `CCOP(=O)(OCC)C(O)[C@H](CCC(=O)N(C)CC(C)c1ccccc1)NC(=O)[C@H](CC1CCCCC1)NC(=O)OCc1cccc(Cl)c1` (stereo partly drawn) [Compound A102, 3-Chlorobenzyl ((2S)-3-cyclohexyl-1-(((2S)-1-(diethoxyphosphoryl)-1-hydroxy-5-(methyl(2-phenylpropyl)amino)-5-oxopentan-2-yl)amino)-1-oxopropan-2-yl)carbamate] cannot be ordered by IC50: > 200 µM for the first, > 200 µM for the second.

With `CCNC(=O)OCCN(C)C(=O)CC[C@@H](CO)NC(=O)[C@H](CC1CCCCC1)NC(=O)OCc1cccc(Cl)c1` [Compound A101, 3-Chlorobenzyl ((12S,15S)-16-cyclohexyl-12-(hydroxymethyl)-8-methyl-4,9,14-trioxo-5-oxa-3,8,13-triazahexadecan-15-yl)carbamate] the IC50 was > 200 µM.
